System: Human dermal papilla cells
Assay: UVB stress protection of dermal papilla cells, cell viability by Neutral Red Uptake staining
Type: cell-based
Conditions: UVB 0.432 J/cm^2; Table 1
Experimental: Human dermal papilla cells were plated into a 96 well flat bottomed clear micro plate at a seeding density of 5000 cells per well. The 24 hour monolayer of cells was exposed to UVB dosages ranging from 0.0072 J/cm^2 to 1.0 J/cm^2 (stress signal) with or without sample (protective formulations) treatment. After exposure, the cells were incubated in a CO2 incubator for 48 hours and developed by NRU (Neutral Red Uptake) staining techniques to analyze cell viability. The absorbance due to viable cells is read at 492 nm in a micro plate reader.

## C[Se]CC[C@H](NC(=O)CC[C@H](N)C(=O)O)C(=O)O [γ-L-glutamyl-L-Selenomethionine]
  Protection of dermal papilla cells, UVB irradiation level 0.432 J/cm^2: No protection
